From US20250186453A1, “COMBINATION THERAPIES COMPRISING A SOS1 INHIBITOR AND A MEK INHIBITOR” (Mirati Therapeutics, Inc., priority 2022, published 2025)

Assays:
[1] = test system: LN229 cells harboring the A72S mutation (PTPN11 A72S); assay: LN229 tumor xenograft model, SOS1 inhibitor - MEK inhibitor combination; format: in vivo, nude/nude mice; conditions: for tumor growth inhibition: LN229 tumors, day 28, single agent, MRTX0902 50 mg/kg twice daily, VS-6766 0.3 mg/kg twice daily Monday, Wednesday, Friday; for Average Tumor Volumes of LN229 Tumor Bearing Mice: p.o., MRTX0902 50 mg/kg BID, VS-6766 0.3 mg/kg BID MWF (Q2D), mean of 5 mice
Experimental: Immunocompromised nude/nude mice are inoculated in the right hind flank with LN229 cells harboring the A72S mutation. When tumor volumes reach approximately 150 mm3 in size, the mice are divided into four groups of 5 mice each. The first group is administered vehicle only. […] The fourth group is administered the single agent dose of the SOS1 inhibitor in combination with the single agent dose of the MEK inhibitor. The treatment period was 28 days. Tumor volumes are measured using a caliper every two—three days and tumor volumes are calculated by the formula: 0.5×(Length×Width)2.
[0153]20 nude/nude mice were inoculated in the right hind limb with 5×10^6 LN229 cells. When tumor volume reached ˜150 mm3 (Study Day 0), 5 mice in each of the four groups were administered p.o. daily for 28 days: vehicle only (0.5% MC (4000 cps)/0.2% Tween80 in water), 50 mg/kg BID of the SOS1 inhibitor (R)-2-methyl-3-(1-((4-methyl-7-morpholinopyrido[3,4-d]pyridazin-1-yl)amino)ethyl)benzonitrile (MRTX0902) (0.5% MC (4000 cps)/0.2% Tween80 in water), 0.3 mg/kg BID Q2D of MEK inhibitor VS-6766 (5% DMSO, 10% HPCD in water), or 50 mg/kg BID MRTX0902 and 0.3 mg/kg BID Q2D. Tumor volumes, measured at pre-specified days, for the five mice per group were averaged and are reported for LN229 cells in Table 1 and FIG. 1.

[2] = test system: NCI-H1435 cells harboring NF1 K615N mutation; assay: NCI-H1435 tumor xenograft model, SOS1 inhibitor - MEK inhibitor combination; format: in vivo, nude/nude mice; conditions: for tumor growth inhibition: NCI-H1435 tumors, day 27, single agent, MRTX0902 50 mg/kg twice daily, VS-6766 0.3 mg/kg twice daily Monday, Wednesday, Friday; for Average Tumor Volumes of NCI-H1435 Tumor Bearing Mice: p.o., MRTX0902 50 mg/kg BID, VS-6766 0.3 mg/kg BID MWF (Q2D), mean of 5 mice
Experimental: Immunocompromised nude/nude mice are inoculated in the right hind flank with NCI-H1435 cells harboring NF1 K615N mutation. When tumor volumes reach approximately 150 mm3 in size, the mice are divided into four groups of 5 mice each. The first group is administered vehicle only. […] The fourth group is administered a single agent dose of the SOS1 inhibitor in combination with a single agent dose of the MEK inhibitor. The treatment period was 27 days. Tumor volumes are measured using a caliper every two—three days and tumor volumes are calculated by the formula: 0.5×(Length×Width)2.
20 nude/nude mice were inoculated in the right hind limb with 5×10^6 NCI-H1435 cells. When tumor volume reached ˜150 mm3 (Study Day 0), 5 mice in each of the four groups were administered p.o. daily for 27 days: vehicle only (0.5% MC (4000 cps)/0.2% Tween80 in water), 50 mg/kg BID of the SOS1 inhibitor (R)-2-methyl-3-(1-((4-methyl-7-morpholinopyrido[3,4-d]pyridazin-1-yl)amino)ethyl)benzonitrile (MRTX0902) (0.5% MC (4000 cps)/0.2% Tween80 in water), 0.3 mg/kg BID Q2D of MEK inhibitor VS-6766 (5% DMSO, 10% HPCD in water), or 50 mg/kg BID MRTX0902 and 0.3 mg/kg BID Q2D VS-6766. Tumor volumes, measured at pre-specified days, for the five mice per group were averaged and are reported for NCI-H1435 cells in Table 2 and FIG. 2.

For `Cc1c(C#N)cccc1[C@@H](C)Nc1nnc(C)c2cnc(N3CCOCC3)cc12` [MRTX0902, (R)-2-methyl-3-(1-((4-methyl-7-morpholinopyrido[3,4-d]pyridazin-1-yl)amino)ethyl)benzonitrile], the tumor growth inhibition [1] was 37.6%, the “Average Tumor Volumes of LN229 Tumor Bearing Mice” value ([1]; Study Day 0 (start of dosing)) was 151 mm^3 and the “Average Tumor Volumes of LN229 Tumor Bearing Mice” value ([1]; Study Day 4) was 174 mm^3. The “Average Tumor Volumes of LN229 Tumor Bearing Mice” value ([1]; Study Day 7) was 199 mm^3, the “Average Tumor Volumes of LN229 Tumor Bearing Mice” value ([1]; Study Day 12) was 248 mm^3 and the “Average Tumor Volumes of LN229 Tumor Bearing Mice” value ([1]; Study Day 15) was 310 mm^3. For the same compound, the “Average Tumor Volumes of LN229 Tumor Bearing Mice” value ([1]; Study Day 18) was 374 mm^3, the “Average Tumor Volumes of LN229 Tumor Bearing Mice” value ([1]; Study Day 25) was 462 mm^3 and the “Average Tumor Volumes of LN229 Tumor Bearing Mice” value ([1]; Study Day 28) was 525 mm^3. For the same compound, the tumor growth inhibition [2] was 49.8%, the “Average Tumor Volumes of NCI-H1435 Tumor Bearing Mice” value ([2]; Study Day 0 (start of dosing)) was 164 mm^3 and the “Average Tumor Volumes of NCI-H1435 Tumor Bearing Mice” value ([2]; Study Day 3) was 241 mm^3. The “Average Tumor Volumes of NCI-H1435 Tumor Bearing Mice” value ([2]; Study Day 6) was 292 mm^3, the “Average Tumor Volumes of NCI-H1435 Tumor Bearing Mice” value ([2]; Study Day 10) was 333 mm^3 and the “Average Tumor Volumes of NCI-H1435 Tumor Bearing Mice” value ([2]; Study Day 13) was 417 mm^3. The “Average Tumor Volumes of NCI-H1435 Tumor Bearing Mice” value ([2]; Study Day 17) was 437 mm^3, the “Average Tumor Volumes of NCI-H1435 Tumor Bearing Mice” value ([2]; Study Day 20) was 474 mm^3 and the “Average Tumor Volumes of NCI-H1435 Tumor Bearing Mice” value ([2]; Study Day 24) was 583 mm^3. For the same compound, the “Average Tumor Volumes of NCI-H1435 Tumor Bearing Mice” value ([2]; Study Day 27) was 608 mm^3.

For `CNS(=O)(=O)Nc1nccc(Cc2c(C)c3ccc(Oc4ncccn4)cc3oc2=O)c1F` [VS-6766, 3-[[3-fluoro-2-(methylsulfamoylamino)pyridin-4-yl]methyl]-4-methyl-7-pyrimidin-2-yloxychromen-2-one], the tumor growth inhibition [1] was 92.5%, the “Average Tumor Volumes of LN229 Tumor Bearing Mice” value ([1]; Study Day 0 (start of dosing)) was 151 mm^3 and the “Average Tumor Volumes of LN229 Tumor Bearing Mice” value ([1]; Study Day 4) was 143 mm^3. The “Average Tumor Volumes of LN229 Tumor Bearing Mice” value ([1]; Study Day 7) was 137 mm^3, the “Average Tumor Volumes of LN229 Tumor Bearing Mice” value ([1]; Study Day 12) was 120 mm^3 and the “Average Tumor Volumes of LN229 Tumor Bearing Mice” value ([1]; Study Day 15) was 140 mm^3. For the same compound, the “Average Tumor Volumes of LN229 Tumor Bearing Mice” value ([1]; Study Day 18) was 186 mm^3, the “Average Tumor Volumes of LN229 Tumor Bearing Mice” value ([1]; Study Day 25) was 225 mm^3 and the “Average Tumor Volumes of LN229 Tumor Bearing Mice” value ([1]; Study Day 28) was 196 mm^3. For the same compound, the tumor growth inhibition [2] was 76.4%, the “Average Tumor Volumes of NCI-H1435 Tumor Bearing Mice” value ([2]; Study Day 0 (start of dosing)) was 166 mm^3 and the “Average Tumor Volumes of NCI-H1435 Tumor Bearing Mice” value ([2]; Study Day 3) was 254 mm^3. The “Average Tumor Volumes of NCI-H1435 Tumor Bearing Mice” value ([2]; Study Day 6) was 296 mm^3, the “Average Tumor Volumes of NCI-H1435 Tumor Bearing Mice” value ([2]; Study Day 10) was 307 mm^3 and the “Average Tumor Volumes of NCI-H1435 Tumor Bearing Mice” value ([2]; Study Day 13) was 281 mm^3. The “Average Tumor Volumes of NCI-H1435 Tumor Bearing Mice” value ([2]; Study Day 17) was 286 mm^3, the “Average Tumor Volumes of NCI-H1435 Tumor Bearing Mice” value ([2]; Study Day 20) was 322 mm^3 and the “Average Tumor Volumes of NCI-H1435 Tumor Bearing Mice” value ([2]; Study Day 24) was 349 mm^3. For the same compound, the “Average Tumor Volumes of NCI-H1435 Tumor Bearing Mice” value ([2]; Study Day 27) was 371 mm^3.
